Experimental data: US5545617A, “Therapeutic regulation of abnormal conjunctival goblet cell mucous secretion” (The Schepens Eye Research Institute, Inc., priority 1993, dated 1996)
Where “and” joins values, the source holds several entries; their conditions need not be identical. Identical values can stand only once. Counter-ions that a name gives are not always drawn. Like-named read-outs stand apart in the source and are kept apart here.

Assays:
[1] = test system: conjunctival goblet cell mucous secretion; details: cited from earlier work
[2] = test system: conjunctival goblet cell mucous secretion; test: local anesthetics on sensory stimulation (corneal debridement) of goblet cell mucous secretion; format: in vivo, rat
Method: Rats were anesthetized with sodium pentobarbital (65 mg/kg).
Fifteen min after application of local anesthetic, the central cornea of one eye was wounded by debridement (2-3 mm diameter area), the other was sham-debrided and 5 min later the animal was euthanized with intraperitoneal sodium pentobarbital ([…]).

[3] = test system: conjunctival goblet cells; test: light microscopy of H and E stained conjunctival sections after topical lidocaine; format: in vivo, rat; details: 1% topical
Method: The globe of the eye was excised. The posterior half of the globe was removed, followed by removal of the lens and iris. The remaining tissue (the ocular surface) including the cornea, the limbus, and the bulbar conjunctiva was frozen in O. C. T. Compound (Miles Inc., Elkart, Ind.).
Tissue sections (20 μm) were prepared from the ocular surface and stained with hematoxylin and eosin (H and E). Sections were examined using an Olympus Microscope (BH-2; Micro-Tech Optical, Inc., Hudson, Mass.).

[4] = test system: conjunctival goblet cell mucous secretion; test: in vivo rat model: topical agents, density of mucin-containing goblet cells (alcian blue/PAS);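 as to all read-outs here: rat eyes dosed topically with 20 µl drops every 20 min over 1 hr, non-secreted goblet cells counted in three 0.16 mm^2 conjunctival areas, lower density means more mucous secretion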; details: for (Stimulus) Optimal Effective Conc. (M): Table 1; for (Stimulus) Max % Increase in Secretion: Table 1, at optimal effective conc.; for conjunctival goblet cell mucous secretion (in words): topical application, summary of Example II; for concentration giving the maximum effect on goblet cell density: topical; for goblet cell mucous secretion (in words): summary of Example I
Method: Thus, the in vivo rat model can be used to study conjunctival goblet cell mucous secretion. With this model, the ocular surface of anesthetized rats is treated topically or subconjunctivally. After treatment, the animals are euthanized, the ocular surface is fixed, conjunctival tissue is removed and mucus in the secretory granules of goblet cells stained with alcian blue and periodic acid-Schiff's (PAS) reagents to indicate mucin-containing goblet cells. The number of mucin-containing goblet cells is then determined. A decrease in the number of mucin-containing goblet cells indicates an increase in goblet cell secretion.
To determine the effect of topically applied solutions, experimental solutions (20 μl drops) were placed on each eye from the temporal region every 20 min for 1 hr. The solutions were carefully removed with a cotton-tipped applicator from the nasal region of the eyes before placement of the next drop or before euthanization. […] Because conjunctival goblet cell density is not uniform throughout the conjunctiva, care was taken to use a specific area for sampling. […] Conjunctival buttons were then dissected and tissue placed epithelial side up on gelatin-coated, glass microscope slides. […] Mucin contained in the secretory granules of the goblet cells was stained with alcian blue and periodic acid-Schiff (PAS) stain (79). The number of mucin-containing goblet cells was counted in a masked fashion using light microscopy (standard Zeiss microscope) at 160× magnification. The density of mucin-containing goblet cells was determined by averaging counts of goblet cells in three 0.16 mm^2 areas in each button. A decrease in mucin containing goblet cell number per unit area (density) indicated an increase in mucous secretion.
The mucin-containing goblet cells stained purple and fuchsia with alcian blue and PAS, respectively. By focusing through the tissue, cells with moderate to intense staining and sharp, defined cell borders were considered non-secreted and were counted. Cells with very light stain, absence of color, indistinguishable color from background staining and fuzzy borders were considered cells that had secreted mucus and were not counted. Following these criteria, the non-secreted mucin-containing goblet cells in the three 0.16 mm^2 areas were counted, averaged and expressed as mucin-containing goblet cell density. Therefore, a decrease in mucin-containing goblet cell density indicated mucous secretion.
To determine the effect of topically applied compounds, an experimental buffer containing the test compound (20 μl drops) was placed on one eye from the temporal region every 20 min for 1 hr unless otherwise indicated. […] The solutions were removed from the nasal region of the eye with a cotton-tipped applicator. After the 1 hr protocol, animals were euthanized with sodium pentobarbital.

[5] = test system: conjunctival goblet cell mucous secretion; details: 100 μg topical, rabbits, cited from earlier work
[6] = test system: conjunctival goblet cell density; details: long term exposure of rabbit ocular surface; cited from earlier work
[7] = 10^-8 M topical, 1 hr, inferior conjunctiva
[8] = 10^-8 M topical, 1 hr, Example II
[9] = 10^-4 M topical, 1 hr, inferior conjunctiva

## Nc1ncnc2c1nc(Br)n2[C@@H]1O[C@@H]2COP(=O)(O)O[C@H]2[C@H]1O [8-Br-cAMP]
[1]
  mucin discharge: unaffected

## CCN(CC)CC(=O)Nc1c(C)cccc1C [lidocaine, lidocaine hydrochloride]
[2]; 1% sub-conjunctival injection alone
  effect on sensory stimulation of mucous secretion: inhibited sensory stimulation of mucous secretion
[2]; 1% sub-conjunctival injection prior to the wound
  mucin-containing goblet cells in treated, wounded eyes: 100±28 cells
[2]; 1% sub-conjunctival injection, sham-wounded
  mucin-containing goblet cells in treated, contralateral sham-wounded eyes: 98±24 cells
[2]; 1% topical alone
  effect on sensory stimulation of mucous secretion: inhibited sensory stimulation of mucous secretion
[2]; 1% topical and sub-conjunctival injection
  effect on sensory stimulation of mucous secretion: inhibited the sensory stimulation of goblet cell mucous secretion
[2]; 1% topical and sub-conjunctival injection, sham-wounded
  mucin-containing goblet cells in treated, contralateral sham-wounded eyes: 110±25 cells
[2]; 1% topical and sub-conjunctival injection, then wounded
  mucin-containing goblet cells in treated, wounded eyes: 132±21 cells
[2]; 1% topical prior to the wound
  mucin-containing goblet cells in treated, wounded eyes: 84±7 cells
[2]; 1% topical, sham-wounded
  mucin-containing goblet cells in treated, sham-wounded eyes: 78±5 cells
[3]; 5 min (FIG. 6B)
  goblet cells detected in H- and E-stained sections: some goblet cells
[3]; 10 min (FIG. 6C)
  goblet cells detected in H- and E-stained sections: numerous goblet cells

## NCCc1c[nH]c2ccc(O)cc12 [serotonin, 5-hydroxytryptamine]
[4]; [7]
  decrease in mucin-containing goblet cell density from contralateral control: 54%
[4]; [8]
  mucin-containing goblet cell density, inferior conjunctiva: 148±27 cells
[4]
  (Stimulus) Optimal Effective Conc. (M): 10^-8 M
  (Stimulus) Max % Increase in Secretion: 54%
  conjunctival goblet cell mucous secretion (in words): stimulate conjunctival goblet cell mucous secretion
[4]; 1 hr, Example II
  concentration giving the maximum effect on goblet cell density: 10^-8 M

## Nc1nc2c(nc(Br)n2[C@@H]2O[C@@H]3COP(=O)(O)O[C@H]3[C@H]2O)c(=O)[nH]1 [8-Br-cGMP]
[1]
  mucin discharge: 2-3 fold

## CCCOc1ccc(C(=O)OCCN(CC)CC)cc1N [proparacaine, Proparacaine hydrochloride]
[2]; 0.5% topical, 15 min before corneal debridement
  inhibition of sensory stimulation of mucous secretion: unable to inhibit sensory stimulation of mucous secretion

## CCCC[C@H](C)C(O)C#CC1CCC(=O)C1C/C=C\CCCC(=O)OC (stereo partly drawn) [FCE20700, 11-deoxy-13,14-didehydro-16(S)-methylester methyl PGE2]
[5]; 0.5 hr
  goblet cells with mucous secretion: 86.9%
[5]; 2.5 hr
  goblet cells with mucous secretion: 90.3%

## NCCc1ccc(O)c(O)c1 [dopamine, 3-hydroxytyramine]
[4]; [7]
  decrease in mucin-containing goblet cell density from contralateral control: 64%
[4]
  (Stimulus) Optimal Effective Conc. (M): 10^-8 M
  (Stimulus) Max % Increase in Secretion: 64%
  conjunctival goblet cell mucous secretion (in words): stimulate conjunctival goblet cell mucous secretion
[4]; 1 hr, Example II
  concentration giving the maximum effect on goblet cell density: 10^-8 M

## CNC[C@H](O)c1cccc(O)c1 [phenylephrine, L-phenylephrine hydrochloride]
[6]
  conjunctival goblet cell density: does not significantly affect conjunctival goblet cell density
[4]; [9]
  decrease in mucin-containing goblet cell density from contralateral control: 40%
[4]
  (Stimulus) Optimal Effective Conc. (M): 10^-4 M
  (Stimulus) Max % Increase in Secretion: 40%
  conjunctival goblet cell mucous secretion (in words): stimulate conjunctival goblet cell mucous secretion
[4]; 1 hr, Example II
  concentration giving the maximum effect on goblet cell density: 10^-4 M

## C[N+](C)(C)CCOC(N)=O.[Cl-] [carbachol, carbamyl choline chloride]
[4]; 10^-5 -10^-4 M topical
  effect on mucin-containing goblet cell density: not at 10^-5 -10^-4 M
[4]; 10^-6 M topical, 1 hr
  decrease in mucin-containing goblet cell density from contralateral control eye: 40%
[4]; 10^-7 M topical
  effect on mucin-containing goblet cell density: decreased mucin-containing goblet cell density
[4]
  (Stimulus) Optimal Effective Conc. (M): 10^-6 M
  (Stimulus) Max % Increase in Secretion: 41%
  conjunctival goblet cell mucous secretion (in words): stimulate conjunctival goblet cell mucous secretion
[4]; 1 hr, Example II
  concentration giving the maximum effect on goblet cell density: 10^-6 M

## Vasoactive Intestinal Peptide [VIP]
[4]; [7]
  decrease in mucin-containing goblet cell density from contralateral control: 39%
[4]; [8]
  mucin-containing goblet cell density, inferior conjunctiva: 150±23 cells
[4]
  (Stimulus) Optimal Effective Conc. (M): 10^-8 M
  (Stimulus) Max % Increase in Secretion: 39%
  conjunctival goblet cell mucous secretion (in words): stimulate conjunctival goblet cell mucous secretion
[4]; 1 hr, Example II
  concentration giving the maximum effect on goblet cell density: 10^-8 M

## CNC[C@H](O)c1ccc(O)c(O)c1 [epinephrine, (-)-epinephrine]
[4]; 1 μM (FIG. 5D)
  electron microscopy of goblet cells, inferior bulbar conjunctiva: some of the goblet cells secreted mucus onto the ocular surface in an all or none fashion
[4]; 100 μM topical
  goblet cell mucous secretion (in words): stimulated mucous secretion
[4]; [9]
  decrease in mucin-containing goblet cell density from contralateral control: 46%
[4]; 10^-4 M topical, 1 hr, Example I, P<0.04 vs buffer
  mucin-containing goblet cell density, inferior conjunctiva: 159±35 cells
[4]; 10^-6 M topical, 1 hr, Example I, unchanged vs buffer
  mucin-containing goblet cell density, inferior conjunctiva: 200±33 cells
[4]; 10^-8 M topical, 1 hr, Example I, unchanged vs buffer
  mucin-containing goblet cell density, inferior conjunctiva: 180±55 cells
[4]
  (Stimulus) Optimal Effective Conc. (M): 10^-2 M
  (Stimulus) Max % Increase in Secretion: 52%
  conjunctival goblet cell mucous secretion (in words): stimulate conjunctival goblet cell mucous secretion
[4]; 1 hr, Example II
  concentration giving the maximum effect on goblet cell density: 10^-4 M

## CCCCC(C)(C)[C@H](O)/C=C/[C@H]1[C@H](O)CC(=O)[C@@H]1C/C=C\CCCC(=O)O [dmPGE2, 16,16-dimethyl-prostaglandin E2]
[4]; 1 μM topical, 1 hr, vs control
  mucin-containing goblet cell density, inferior bulbar conjunctiva: did not differ significantly from control values
[4]; 10 μM topical, 1 hr, vs control
  mucin-containing goblet cell density, inferior bulbar conjunctiva: did not differ significantly from control values
[4]; 100 μM topical, 1 hr, inferior conjunctiva
  decrease in mucin-containing goblet cell density from buffer-treated eyes: 30% and 39%
[4]; 100 μM topical, 1 hr, mean±SE
  mucin-containing goblet cell density, inferior bulbar conjunctiva: 36±12 goblet cells/0.16 mm^2
[4]; 100 μM topical
  goblet cell mucous secretion (in words): increased goblet cell mucous secretion from inferior but not superior conjunctiva
[4]; 100 μM, 10 μM, 1 μM topical, 1 hr, vs contralateral control or buffer-treated eyes
  mucin-containing goblet cell density, superior bulbar conjunctiva: Neither 100 μM, 10 μM, nor 1 μM dmPGE2 significantly altered the density
[4]; 600 μM (FIG. 5B)
  electron microscopy of goblet cells, inferior bulbar conjunctiva: the goblet cells secreted mucous onto the ocular surface

## Substance P
[4]; 10^-6 M topical, 1 hr
  decrease in mucin-containing goblet cell density from contralateral control eye: 58%
[4]; 10^-6 M topical, 1 hr, Example II
  mucin-containing goblet cell density: 77±18 cells
[4]; 10^-10 or 10^-8 M topical
  effect on mucin-containing goblet cell density: not at 10^-10 or 10^-8 M
[4]
  (Stimulus) Optimal Effective Conc. (M): 10^-6 M
  (Stimulus) Max % Increase in Secretion: 42%
  conjunctival goblet cell mucous secretion (in words): stimulate conjunctival goblet cell mucous secretion
